Reference: patent US11008572B2, “Methods and compositions for modulating splicing” (SKYHAWK THERAPEUTICS, INC., priority 2017, dated 2021)

Assays:
IKBKAP^FL mRNA = assay: IKBKAP splicing assay, qPCR; format: cell-based; settings: 24 hours of incubation
Experimental: (§1) Various cells lines were treated with the SMSMs described herein. RNA was then isolated, cDNA synthesized, qPCR performed and the levels of IKBKAP targets of the SMSMs were determined.
(§2) On the day of the experiment, a 96-well plate was seeded with the cell lines of interest. The cells were diluted with full growth media to a concentration of 2.0×10^5 cells/mL and 100 μL of cells were added to each well (20,000 cells per well). The cells were treated with a compound immediately after plating.
(§3) The compounds were then added to the cell plate using the HP compound dispenser. In the initial experiment, a top concentration of 10 μM and an 8 point 4-fold dilution scheme was used. The stock compounds were made at a concentration of 5 mM, and the DMSO concentration was set to 0.2%. DMSO was used to normalize all the compound-containing wells and the untreated cells.
(§4) The treated cells were incubated at 37° C. in a 5% CO2 incubator for the desired amount of time. Plates were placed in a plastic bag with a wet paper towel to prevent evaporation.
(§5) RNA was isolated using the Cells to CT kit (ThermoFisher, AM1728). The cells were washed once with 100 μL cold PBS. 50 μL of lysis buffer was added to each well/tube (49.5 μL lysis buffer+0.5 μL DNase I per well/tube). The lysis reaction was mixed and incubated at room temperature for 5 minutes. 5 μL of stop solution was added directly into each cell lysis reaction and mixed by pipetting up and down 5 times. The plates/tubes were incubated at room temperature for 2 minutes then placed on ice if the cDNA synthesis was to be performed immediately. Otherwise, the plates/tubes were stored at −80° C.
(§6) cDNA synthesis reactions were then performed. 40 μL RT master mix was added to PCR tubes or plate wells. 10 μL of RNA was added to each tube/well. The RT thermal cycler program was then run and tubes or plate wells were incubated at 37° C. for 1 hour, then at 95° C. for 5 minutes to deactivate the enzyme.
(§7) The qPCR was performed using a QuantStudio 6 instrument (ThermoFisher) and the following cycling conditions and according to the tables below. All samples and standards were analyzed in triplicate. Cycle 1: 2 minutes at 50° C. Cycle 2: 10 minutes at 95° C. Cycle 3 (repeat 40 times): 15 seconds at 95° C., 1 minute at 60° C.
(§8) The determined IKBKAP^FL and […] isoform quantities were then used to determine the IKBKAP^FL: IKBKAP^Δ20 ratio at increasing SMSM compound concentrations. The PPIA quantities were used in the normalization to account of cell proliferation effects of the compounds.
(§9) An assay to measure the IKBKAP^FL mRNA and IKBKAP^Δ20 mRNA simultaneously in cell wells was performed. The RNA values were measured relative to DMSO control and also included a housekeeping gene, PPIA to ensure data was consistent. The mRNA values were measured after 24 hours of incubation with the SMSM compounds.

IKBKAP^Δ20 mRNA = assay: IKBKAP splicing assay, qPCR; format: cell-based; settings: 24 hours of incubation
Experimental: as §1, §2, §3, §4, §5, §6, §7, §8, §9

A673 cells = assay: Dose-response cell proliferation, crystal violet assay, 72 h; format: cell-based; settings: ratio of IC50 in NHDF cells to IC50 in A673 cells
Experimental: Small molecule splicing modulators were tested in a dose-response assay using A673 cells and NHDF cells.
A673 cells or NHDF cells were first plated in 96-well plastic tissue culture plates (10,000 cells per well). The cells were treated with vehicle alone (DMSO), or increasing concentrations of SMSM compounds for 72 h. Following treatment, cell proliferation was determined using a crystal violet assay. The relative cell proliferation at each concentration was determined.

A673 xenografts = assay: A673 xenograft tumor growth inhibition; format: in vivo; settings: immunocompromised nude mice with pre-existing A673 xenografts
Experimental: Dose range and time course studies comparing anti-neoplastic effects of SMSM-167 and SMSM-151 against vehicle were conducted.
Female NCrNu mice were used. Age range of enrolment was 7-10 weeks. A total of 75animals were for the studies.
The A673 tumor cell line was maintained in vitro as a monolayer culture. […] The cells growing in an exponential growth phase were harvested and counted for tumor inoculation.
Each mouse were inoculated into aright flank with the single cell suspension of 95% viable tumor cells (5×10^6 cells/mouse) in serum-free RPMI 1640 Media for tumor development. Treatments were administered when mean tumor size reached approximately 75 mm^3. […]
Body weight were measured prior to tumor inoculation and prior to the treatment administration and then daily. Tumor size were measured 2-3 times per week in two dimensions using a caliper, and the volume were expressed in mm^3 using the formula: V=0.5×a×b^2 where a and b are the long and short diameters of the tumor, respectively. […]
Studies were performed to assess the effects of in vivo SMSM treatment on glioblastoma, breast, pancreatic, prostate, melanoma, lymphoma and Ewing sarcoma tumors. […] After SMSM treatment, mRNA was isolated from the xenografts and was analyzed by qRT-PCR.
Tumor size was measured 2 times per week in two dimensions using a caliper. […]

A375 xenografts = assay: A375 xenograft tumor growth inhibition; format: in vivo; settings: immunocompromised nude mice with pre-existing A375 xenografts
Experimental: Studies were performed to assess the effects of in vivo SMSM treatment on glioblastoma, breast, pancreatic, prostate, melanoma, lymphoma and Ewing sarcoma tumors. Studies were also performed to assess the effects of in vivo SMSM treatment on mRNA levels. Immunocompromised nude mice with pre-existing glioblastoma, breast, pancreatic, prostate, melanoma, lymphoma and Ewing sarcoma xenografts were treated with vehicle or SMSMs. Tumor tissues from subcutaneous xenografts were broken into a powder using a BioPulverizer (Biospec Products, Inc.). After SMSM treatment, mRNA was isolated from the xenografts and was analyzed by qRT-PCR.
Tumor size was measured 2 times per week in two dimensions using a caliper. Studies were terminated when the tumor size in the vehicle treated group reached 2,000 mm^3. Each mouse was bled at 2 hrs after the last dose and at least 50 μl of plasma was collected from each mouse. All of the collected plasma samples and retainer dosing solutions for each dose level were used for bioanalytical measurements. All tumors were also collected and weighed. One necrosis-free tumor fragment of approximately 50 mg was taken from each tumor and flash-frozen for RNA isolation. […]
The effects of in vivo SMSM treatments on pre-existing subcutaneous glioblastoma, breast, pancreatic, prostate, melanoma, lymphoma and Ewing sarcoma xenografts were assessed. […]

SMILES	EC50 (IKBKAP^FL mRNA) [nM]	IC50 (IKBKAP^Δ20 mRNA) [nM]	Ratio NHDF/A673 IC50 (A673 cells)	tumor growth inhibition (TGI), in words (A673 xenografts)	tumor growth inhibition (TGI), in words (A375 xenografts)
CN(c1ccc(-c2ccc(-c3cn[nH]c3)cc2O)nn1)[C@@H]1C[C@H]2CC[C@@H](C1)N2 [compound 138, 2-(6-(((1R,3s,5S)-8-azabicyclo[3.2.1]octan-3-yl)(methyl)amino)pyridazin-3-yl)-5-(1H-pyrazol-4-yl)phenol]	101 to 350	201 to 1000			
CN(c1ccc(-c2ccc(-c3cn[nH]c3)cc2O)nn1)[C@H]1C[C@]2(C)CC[C@](C)(C1)N2 [compound 151, 2-(6-(((1R,3s,5S)-1,5-dimethyl-8-azabicyclo[3.2.1]octan-3-yl)(methyl)amino)pyridazin-3-yl)-5-(1H-pyrazol-4-yl)phenol]			>350	led to tumor growth inhibition	led to tumor growth inhibition
CN(c1ccc(-c2ccc(-c3cn[nH]c3)cc2O)nn1)[C@@H]1C[C@H]2CCC[C@@H](C1)N2 [compound 160, 2-(6-(((1R,3s,5S)-9-azabicyclo[3.3.1]nonan-3-yl)(methyl)amino)pyridazin-3-yl)-5-(1H-pyrazol-4-yl)phenol]	< 100	< 200		led to tumor growth inhibition	led to tumor growth inhibition
